One experiment has as its system LPA levels. The note with it: as disclosed in literature; cited from earlier work.
The next experiment deals with Human ATX (Homo sapiens (Human), UniProt Q13822). As to the kind of experiment: Assay A: Biochemical ATX Assay. The note with it: 5 nM recombinant ATX, 18:1 LPC substrate, 2 h at room temperature, formation of 18:1 LPA.
The next experiment addresses ATX in human whole blood (Homo sapiens (Human), UniProt Q13822). As to the kind of experiment: Assay B: Whole-Blood ATX assay. It is filed as biochemical. The note with it: 1 h at 37° C., formation of 18:2 LPA.
Experiment [1] deals with plasma LPA (ATX inhibition). Nature of the experiment: Assay C: In vivo plasma LPA reduction after oral dosing. Conditions: rats, 5 mg/kg, 8 hours post application, sum of LPA vs baseline. Here is the method:
The test substance was solubilized in 0.5% natrosol supplemented with 0.015% Tween 80 for oral application to rats at a dose of 5 mg/kg. Blood samples were collected before compound administration and 8 hours post application on ice using EDTA as coagulation agent. Subsequently, plasma was prepared by centrifugation and stored until analysis at −20° C.
LPAs from plasma samples were extracted by using the procedure described by Scherer et al. (Clinical chemistry 2009, 55, 1218-22). 35 μL of heparinized plasma was mixed with 200 μL 40 mM disodium hydrogen phosphate buffer containing 30 mM citric acid (pH 4) and 1 μM 17:0 LPA (internal standard). Subsequently, 500 μL butanol was added and shaken vigorously for 10 min. Samples were centrifuged afterwards at 4000 rpm, 4° C., for 10 min. 500 μL of the organic upper phase was transferred to a fresh 96-deep-well plate and evaporated with a gentle nitrogen flow of 15 psi for 45 min. The resultant residual was dissolved in 100 μL ethanol prior to LC-MS analysis.
LC-MS Method for the Analytic of In Vivo Samples
A Triple Quad 6500 (ABSciex, Toronto, Canada) was equipped with an Agilent 1290 LC system (Agilent, Santa Clara, CA) a CTC autosampler and an Atlantis 50×2.1-mm, 3-μm HILIC LC column (Waters, Elstree, UK). Eluent A contained 0.2% formic acid and 50 mM ammonium formate in water, whereas eluent B consisted of 0.2% formic acid in acetonitrile. […] At 1.8 min, solvent B was set back to 95% and stayed constant for 0.7 min for re-equilibration of the column. The following LPA species were monitored (DP: declustering potential and CE: collision energy): 16:0 LPA at 409.2/152.8, DP=−150, CE=−28; 18:0 LPA at 437.3/152.8, DP=−60, CE=−28; 18:1 LPA at 435.2/152.8, DP=−40, CE=−28; 18:2 LPA at 433.2/152.8, DP=−150, CE=−28; 20:4 LPA at 457.2/152.8, DP=−100, CE=−29 and 17:0 LPA at 423.5/152.8, DP=−100, CE=−36. LPA depletion in percent was calculated based on the baseline LPA levels before test compound application. The sum of LPA refers to the species 16:0; 18:0; 18:1; 18:2 and 20:4

This is an account of results in patent US12391667B2, “N-methyl, n-(6-(methoxy)pyridazin-3-yl) amine derivatives as Autotaxin (ATX) modulators for the treatment of inflammatory airway or fibrotic diseases” (Boehringer Ingelheim International GmbH, priority 2019, dated 2025).

Procedure for ATX in human whole blood: 45 μL human whole-blood was supplemented with 5 μL of the test compound, dissolved in phosphate-buffered saline (concentration range 0.12 nM-100 μM). This mixture was incubated for 1 h at 37° C. and stopped by addition of 100 μL 40 mM disodium hydrogen phosphate buffer containing 30 mM citric acid (pH 4) and 1 μM 17:0 LPA (internal standard). LPA was extracted by addition of 500 μL 1-butanol, followed by 10-min centrifugation at 4000 rpm, 4° C. From the resultant organic supernatant, a 200 μL aliquot was transferred into a 96-deep-well plate and transferred to the RapidFire-based MS/MS measurement.
The RapidFire autosampler was coupled to a binary pump (Agilent 1290) and a Triple Quad 6500 (ABSciex, Toronto, Canada). This system was equipped with a 10-μL loop, 5-μL Waters Atlantis HILIC cartridge (Waters, Elstree, UK), 90% acetonitrile containing 10 mM ammonium acetate as eluent A and 40% acetonitrile containing 10 mM ammoniumacetate as eluent B. For details see (Bretschneider et al., SLAS Discovery, 2017, 22, 425-432). The MS was operated in negative mode with a source temperature of 550° C., curtain gas=35, gas 1=65, and gas 2=80. The following transitions and MS parameters (DP: declustering potential and CE: collision energy) for the respective LPAs were determined: 18:2 LPA at 433.2/152.8, DP=−150, CE=−27 and 17:0 LPA at 423.5/152.8, DP=−100.
The formation of 18:2 LPA was monitored and evaluated as ratio to 17:0 LPA.
Procedure for Human ATX: 5 nM recombinant ATX (Cayman Chemicals) was supplemented to 50 mM Tris buffer (pH 8.0) containing 3 mM KCl, 1 mM CaCl2), 1 mM MgCl2 0.14 mM NaCl, and 0.1% bovine serum albumin. Test compounds were dissolved in DMSO and tested in the range of 0.1 nM to 10 μM. The enzymatic reaction (22.5 μL) was started by addition of 2.5 μL 10 μM 18:1 LPC (Avanti Lipids, Alabaster, AL, USA). After 2-h incubation at room temperature, the reaction was stopped by addition of 20 μL water containing 500 nM 20:4 LPA as internal standard and 100 μL 1-butanol for extracting LPA. Subsequently, the plates were centrifuged at 4000 rpm, 4° C., for 2 min. The resultant upper butanol phase was directly used for injection at a RapidFire system (Agilent).
The RapidFire autosampler was coupled to a binary pump (Agilent 1290) and a Triple Quad 6500 (ABSciex, Toronto, Canada). […] 1 The MS was operated in negative mode with a source temperature of 550° C., curtain gas=35, gas 1=65, and gas 2=80. The following transitions and MS parameters (DP: declustering potential and CE: collision energy) for the respective LPAs were determined: 18:1 LPA at 435.2/152.8, DP=−40, CE=−28 and 20:4 LPA at 457.2/152.8, DP=−100, CE=−27).
The formation of 18:1 LPA was monitored and evaluated as ratio to 20:4 LPA.

`O=C(NC[C@@H]1[C@H]2CN(C(=O)OCc3cc(C(F)(F)F)cc(C(F)(F)F)c3)C[C@@H]12)c1ccc2[nH]nnc2c1`: the “reduction of LPA levels in vivo” value with LPA levels was “significantly reduces LPA levels in vivo”.
What is called IC50 is the concentration at which inhibition is half-maximal. For the molecule `CC(=O)N1CCN(c2ccc(C3(Nc4ccc(OCc5ccc(C(F)(F)F)nc5)nn4)CC3)cc2)CC1` [Example 1.1, 1-[4-(4-{1-[(6-{[6-(trifluoromethyl)pyridin-3-yl]methoxy}pyridazin-3-yl)amino]cyclopropyl}phenyl)piperazin-1-yl]ethan-1-one], the half-inhibitory concentration (IC50) at Human ATX came out at 2.5 nM; at ATX in human whole blood, 3.5 nM. The “LPA reduction at 8 h” value in experiment [1] worked out at 97.0%.
In the same order, the values of `CC(=O)N1CCN(c2ccc([C@@H](C)Nc3ccc(OCc4ccc(C(F)(F)F)nc4)nn3)cc2)CC1` [Example 1.2] are 3.4 nM, 1.8 nM and 95.9%.
Take `CC(=O)N1CCN(c2ccc(C(C)Nc3ccc(OCc4ccc(C(F)(F)F)nc4)nn3)cc2)CC1` (centres unmarked) [Example 1.3]: the IC50 is 2.2 nM at Human ATX and 2 nM on ATX in human whole blood.
As for `CC(=O)N(C)C1CCN(c2ccc(C3(Nc4ccc(OCc5ccc(C(F)F)nc5)nn4)CC3)cc2)CC1` [Example 1.4], the IC50 was 5.8 nM on Human ATX and 4.3 nM on ATX in human whole blood. For the same molecule, the “LPA reduction at 8 h” value in experiment [1] is recorded as 98.0%.
In the case of `CC(=O)N1CCN(c2ccc(C3(Nc4ccc(OCc5ccc(C(F)F)nc5)nn4)CC3)cc2)CC1` [Example 1.5], the figures for the IC50 at Human ATX and on ATX in human whole blood were 4.2 nM and 4.3 nM, respectively.
In the same order, the values of `CC(=O)N1CCN(c2ccc([C@H](C)Nc3ccc(OCc4ccc(C(F)(F)F)nc4)nn3)cc2)CC1` [Example 1.6] are 2.6 nM and 7.8 nM.
Regarding `CC(=O)N(C)C1CCN(c2ccc(C3(Nc4ccc(OCc5ccc(C(F)F)nc5)nn4)CC3)cc2)C1` (centres unmarked) [Example 1.7], the IC50 at Human ATX came to 6.7 nM; on ATX in human whole blood, 7 nM.
Take `CC(=O)N1CCN(c2ccc([C@@H](CO)Nc3ccc(OCc4ccc(C(F)F)nc4)nn3)cc2)CC1` [Example 1.8]: the IC50 amounted to 4.2 nM on Human ATX and 1.3 nM against ATX in human whole blood.
Consider `CC(=O)N1CCN(c2ccc([C@@H](CO)Nc3ccc(OCc4ccc(C(F)(F)F)nc4)nn3)cc2)CC1` [Example 1.9], for which the IC50 on Human ATX was found to be 5.3 nM; on ATX in human whole blood it was 5 nM.
For the molecule `CC(=O)N1CCN(c2ccc(C3(Nc4ccc(OCc5ccc(C(F)(F)F)nc5)nn4)CC3)cc2F)CC1` [Example 1.10], the results for the half-maximal inhibitory concentration (IC50) at Human ATX and on ATX in human whole blood were 2.4 nM and 3.7 nM, respectively.
Take `CC(=O)N1CCN(c2ccc(C3(Nc4ccc(OCc5ccc(C(F)(F)F)nc5)nn4)CC3)cn2)CC1` [Example 1.11]: the half-maximal inhibitory concentration (IC50) on Human ATX was 4.4 nM; at ATX in human whole blood, 6.9 nM. Besides, in experiment [1], the “LPA reduction at 8 h” value worked out at 96.3%.
For `CC(=O)N1CCN(c2ccc(C3(Nc4ccc(OCc5ccc(C(F)(F)F)nc5)nn4)CC3)c(F)c2)CC1` [Example 1.12], the values for the IC50 at Human ATX and at ATX in human whole blood were 4.8 nM and 7.7 nM, respectively.
Taken in the same sequence, the figures for `CC(=O)N1CCN(c2ccc(C3(Nc4ccc(OCc5ccc(C(F)(F)F)nc5)nn4)CC3)cc2C)CC1` [Example 1.13] were 3.4 nM and 7.1 nM.
For `CCc1nc2c(C)cc(N3CCN(CC(=O)N4CC(O)C4)CC3)cn2c1N(C)c1nc(-c2ccc(F)cc2)c(C#N)s1` [Example 2 in WO2014/139882, reference compound], the “LPA reduction at 8 h” value in experiment [1] was found to be 58.1%.
